PMC11765394, “Structure-Based Discovery of MolPort-137: A Novel Autotaxin Inhibitor That Improves Paclitaxel Efficacy” (International Journal of Molecular Sciences, 2025)

These molecules were tested against T1, autotaxin (ATX) (Homo sapiens, UniProt Q13822) (assay: biochemical).
T1 construct: gene ENPP2
Parameters: FS-3 fluorogenic substrate hydrolysis by purified recombinant human ATX, fluorescence read-out
Experimental: The purification of recombinant human ATX was carried out as reported earlier. The potential inhibitory effect of the hits identified through molecular modeling was assessed using the FS-3 assay, which measures fluorescence when the non-natural lipid-like FRET-established substance FS-3 (Echelon Biosciences, Salt Lake City, UT, USA) is hydrolyzed by ATX. A 60 μL volume of reaction mixture containing ATX assay buffer (pH 8.0, containing 10 μM BSA, 50 mM TRIS, […], 5 mM KCl, 1 mM CaCl2, and 1 mM MgCl2) was added to each well of a black-wall 96-well plate. Recombinant ATX was then added to achieve a final concentration of 4 nM. The compounds were dissolved in DMSO and transferred to a 96-well plate in technical triplicate. Single-dose testing was performed with a final well concentration of 10 μM, while dose–response assays involved eight different concentrations of the test compound. FS-3 was then added to achieve a concluding well strength of 1 μM, and fluorescence was quantified on a CLARIOstar Plus plate reader (BMG Labtech, Ortenberg, Baden-Württemberg, Germany) for two hours, with scans every two minutes at excitation/emission wavelengths of 485/528 nm. Percent activity was calculated relative to DMSO-treated control wells. […] Inhibition tests were conducted to target ATX-facilitated hydrolysis of FS3 (LPC homolog) using 15 compounds at 10 μM. Compounds inhibiting more than 50% of FS-3 hydrolysis were classified as hits. […] BMP-22, a known ATX inhibitor, served as a control with an IC50 of 0.2 ± 0.0 μM, consistent with reported values.

| inhibition at 10 µM | Molecule |
| --- | --- |
| 42% | COc1ccc(NC(=O)CSc2nc(=O)c3c(C)cc(C)nc3n2-c2cccc(C)c2C)cc1 [MolPort-072] |
| 15.5% | Cc1ccc(-c2noc(-c3nnn(Cc4nc(-c5ccccc5)oc4C)c3C)n2)cc1C [MolPort-122] |
| 75.9% | Cc1cc(F)ccc1NC(=O)c1cnn2c(=O)c3c(n(C)c12)CCN(Cc1ccccc1)C3 [MolPort-137] |
| -13.5% | Cc1cccc(-n2c(SCC(=O)Nc3ccc(C)c(C)c3)nc3[nH]nc(C)c3c2=N)c1 [MolPort-144] |
| 5.16% | Cc1cccc(NC(=O)Cn2nc3c(Oc4ccccc4C)nc4ccccc4n3c2=O)c1 [MolPort-161] |
| 33.7% | COc1ccccc1-c1nc(Cn2nnc(-c3nc(-c4ccc(C)cc4)no3)c2C)c(C)o1 [MolPort-185] |
| 2.06% | Cc1ccc(NC(=O)Cn2nc3c(Oc4cccc(C)c4C)nc4ccccc4n3c2=O)cc1C [MolPort-240] |
| 5.23% | Cc1cc(NC(=O)Cn2nc3c(Oc4ccccc4C)nc4ccccc4n3c2=O)ccc1Br [MolPort-311] |
| 5% | Cc1cc(-n2c(SCC(=O)Nc3ccc(F)c(F)c3)nc3n[nH]c(C)c3c2=N)ccc1Cl [MolPort-323] |
| 27.2% | Cc1ccccc1NC(=O)c1nnn(Cc2nc(-c3cccc(Cl)c3)oc2C)c1C [MolPort-495] |
| 26.4% | Cc1cc(C)cc(NC(=O)Cn2c(=O)nc(N3CCCC(C)C3)c3ccccc32)c1 (centres unmarked) [MolPort-616] |
| 7.1% | CCc1cccc(NC(=O)Cn2nc3c(Oc4ccccc4C)nc4ccccc4n3c2=O)c1 [MolPort-674] |
| 10.8% | COc1cc(C=C2N=C(c3ccc(F)cc3)OC2=O)cc(I)c1OCc1cccc(C)c1 [MolPort-839] |
| 29.7% | Cc1cc(C)cc(-n2c(CN3CCN(C(=O)Nc4ccccc4F)CC3)nc3cccnc32)c1 [MolPort-904] |
| 7.61% | Cc1cccc(CNC(=O)c2c(O)c3cccnc3n(-c3cccc(F)c3)c2=O)c1 [MolPort-914] |

What follows are molecules tested against T1, autotaxin (ATX) (assay: FS-3 fluorogenic substrate hydrolysis assay with […] purified recombinant human ATX).
Assay type: biochemical

| IC50 | Molecule |
| --- | --- |
| 200 nM | CCCCCCCCCCCCCCCc1ccc(CP(=O)(O)O)cc1 [BMP-22, reference compound] |
| 1600 ± 200 nM | MolPort-137 |
